Assay [1] addresses T1, iNOS (UniProt P29477).
T1 sequence (P29477 1-1144): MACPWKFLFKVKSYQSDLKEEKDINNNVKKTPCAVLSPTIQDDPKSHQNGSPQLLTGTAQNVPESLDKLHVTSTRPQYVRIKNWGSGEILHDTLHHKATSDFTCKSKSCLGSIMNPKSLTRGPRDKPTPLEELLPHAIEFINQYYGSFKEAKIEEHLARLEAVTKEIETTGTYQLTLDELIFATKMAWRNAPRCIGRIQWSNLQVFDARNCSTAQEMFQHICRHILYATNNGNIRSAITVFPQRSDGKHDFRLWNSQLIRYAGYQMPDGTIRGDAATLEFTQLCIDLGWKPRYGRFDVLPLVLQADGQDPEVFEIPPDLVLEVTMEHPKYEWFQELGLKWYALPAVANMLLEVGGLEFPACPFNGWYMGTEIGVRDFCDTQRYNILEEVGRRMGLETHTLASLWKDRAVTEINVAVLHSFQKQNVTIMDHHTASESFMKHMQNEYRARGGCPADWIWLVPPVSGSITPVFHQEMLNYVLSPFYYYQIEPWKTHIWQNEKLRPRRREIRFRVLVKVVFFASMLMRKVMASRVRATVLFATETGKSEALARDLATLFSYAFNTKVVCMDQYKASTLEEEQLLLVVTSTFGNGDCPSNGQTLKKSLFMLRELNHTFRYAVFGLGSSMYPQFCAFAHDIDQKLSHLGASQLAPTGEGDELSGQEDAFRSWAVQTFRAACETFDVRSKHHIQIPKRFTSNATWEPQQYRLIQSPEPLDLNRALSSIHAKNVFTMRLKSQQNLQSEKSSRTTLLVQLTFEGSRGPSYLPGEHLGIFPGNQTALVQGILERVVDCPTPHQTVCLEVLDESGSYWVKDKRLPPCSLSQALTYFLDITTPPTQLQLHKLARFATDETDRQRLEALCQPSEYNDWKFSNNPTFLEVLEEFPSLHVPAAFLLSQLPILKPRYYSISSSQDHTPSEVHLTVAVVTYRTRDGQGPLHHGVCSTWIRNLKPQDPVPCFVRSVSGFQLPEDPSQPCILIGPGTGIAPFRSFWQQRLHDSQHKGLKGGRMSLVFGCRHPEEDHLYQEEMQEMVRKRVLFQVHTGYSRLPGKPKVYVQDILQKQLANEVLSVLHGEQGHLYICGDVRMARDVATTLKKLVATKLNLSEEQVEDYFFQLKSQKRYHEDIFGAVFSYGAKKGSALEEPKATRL
Nature of the assay: iNOS enzyme assay (hemoglobin capture assay). The class given is biochemical. The settings on record: initial velocity, read-out: IC50 of NOS, iNOS. As to the method:
(§1) The reaction mixture for iNOS contained 10 mM of L-arginine, […], 6.5 mM BH4 and 3 mM oxyhemoglobin in 100 mM Hepes (pH 7.5). All assays were in a final volume of […] and were initiated with enzyme.
(§2) IC50 and percent inhibition of NOS by the compounds of the invention were determined under initial velocity measurement condition with hemoglobin capture assay as described above using varying concentrations of the compounds of the invention.

The target in assay [2] is T2, eNOS (UniProt P29473).
T2 sequence (P29473 1-1205): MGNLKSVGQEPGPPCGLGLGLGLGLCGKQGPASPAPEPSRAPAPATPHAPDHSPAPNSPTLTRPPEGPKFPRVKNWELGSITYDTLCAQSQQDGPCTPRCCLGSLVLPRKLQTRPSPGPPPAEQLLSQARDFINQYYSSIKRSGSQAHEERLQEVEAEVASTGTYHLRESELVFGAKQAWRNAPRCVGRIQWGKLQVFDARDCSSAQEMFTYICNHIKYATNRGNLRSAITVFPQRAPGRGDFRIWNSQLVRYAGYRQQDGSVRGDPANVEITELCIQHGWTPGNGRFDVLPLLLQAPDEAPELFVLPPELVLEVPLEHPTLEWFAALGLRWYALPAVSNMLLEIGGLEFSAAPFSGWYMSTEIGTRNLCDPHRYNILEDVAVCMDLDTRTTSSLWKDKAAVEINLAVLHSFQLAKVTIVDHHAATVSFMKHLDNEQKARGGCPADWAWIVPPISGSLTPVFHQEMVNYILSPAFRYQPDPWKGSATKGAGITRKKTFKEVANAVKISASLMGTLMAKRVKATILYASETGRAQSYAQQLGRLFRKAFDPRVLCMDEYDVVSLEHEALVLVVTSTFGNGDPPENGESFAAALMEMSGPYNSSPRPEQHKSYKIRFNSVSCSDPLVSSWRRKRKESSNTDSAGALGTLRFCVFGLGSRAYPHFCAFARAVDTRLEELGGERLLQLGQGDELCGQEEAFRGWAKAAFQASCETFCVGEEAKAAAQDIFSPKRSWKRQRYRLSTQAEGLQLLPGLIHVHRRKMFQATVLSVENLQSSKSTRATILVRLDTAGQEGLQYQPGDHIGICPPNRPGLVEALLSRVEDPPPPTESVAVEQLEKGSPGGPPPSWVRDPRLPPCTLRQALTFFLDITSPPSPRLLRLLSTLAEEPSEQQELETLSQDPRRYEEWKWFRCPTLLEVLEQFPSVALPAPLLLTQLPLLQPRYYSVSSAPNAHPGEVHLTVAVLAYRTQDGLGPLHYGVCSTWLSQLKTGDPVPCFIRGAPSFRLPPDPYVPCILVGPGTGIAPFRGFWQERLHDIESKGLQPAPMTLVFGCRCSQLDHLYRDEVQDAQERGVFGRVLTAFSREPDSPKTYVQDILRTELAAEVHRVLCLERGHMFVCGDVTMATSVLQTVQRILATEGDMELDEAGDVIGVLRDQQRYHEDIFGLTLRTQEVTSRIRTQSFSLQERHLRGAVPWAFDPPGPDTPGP
Nature of the assay: eNOS enzyme assay (hemoglobin capture assay). The class given is biochemical. The settings on record: initial velocity, read-out: IC50 of NOS, eNOS. As to the method: The generation of nitric oxide by NOS was measured using the hemoglobin capture assay (Proc. Natl. Acad. Sci., U.S.A. 1990, 87, 714; Huang et al. J. Med. Chem. 2000, 43, 2938). An assay mixture for nNOS contained 10 mM L-arginine, 1.6 mM CaCl2, […] calmoduline, […], 6.5 mM BH4 and 3 mM oxyhemoglobin in 100 mM Hepes (pH 7.5). The reaction mixture for iNOS contained 10 mM of L-arginine, […], 6.5 mM BH4 and 3 mM oxyhemoglobin in 100 mM Hepes (pH 7.5). All assays were in a final volume of […] and were initiated with enzyme. Nitric oxide reacts with oxyhemoglobin to yield methehemoglobin which is detected at 401 nm (ε=19,700 M^−1cm^−1) on a Perkin-Elmer Lamda 10 UV/vis spectrophotometer.
as §2

The subject of assay [3] is Rat cortical neuronal cultures. Nature of the assay: Neuroprotection of rat cortical cells against NMDA challenge. It counts as cell-based. The settings on record: 25 μM NMDA 30 minutes; 60-minute pre-incubation; % cell death by propidium iodide after 24 hrs. Here is the method:
Rat cortical neuronal cultures were exposed for 30 minutes to 25 μM NMDA in buffer with or without the test compounds according to previously reported procedures (J. Neurosci. 2000 October 1; 20(19):7183–92). Test compounds were added for a 60-minute pre-incubation period in order to maximize the chance of seeing neuroprotection. After 24 hrs cultures were treated with propidium iodide and the % cell death determined.

For assay [4], the target named is nNOS (UniProt P29476). Nature of the assay: nNOS enzyme assay (hemoglobin capture assay). The class given is biochemical. The following applies: initial velocity, read-out: IC50 of NOS, nNOS. Here is the method:
as §1, §2

Structures can show the parent of a compound that is named as a salt.

Usually IC50 stands for the concentration needed to halve the response being measured. As to `N=C(Nc1ccc2nc(NCCN3CCOCC3)sc2c1)c1cccs1` [Example 36f, N-[2-(2-Morpholin-4-yl-ethylamino)-benzothiazol-6-yl]-thiophene-2-carboxamidine], the IC50 in assay [1] and in assay [2] was > 300 µM in each case. The “neuroprotection during NMDA challenge” value in assay [3] is “neuroprotection observed”.

Consider `N=C(Nc1ccc2sc(N)nc2c1)c1cccs1` [Example 20, N-(2-Amino-benzothiazol-5-yl)-thiophene-2-carboxamidine hydrobromide], for which the results for the IC50 in assay [1] and in assay [2] were 73 µM and 169 µM, respectively.

Consider `N=C(Nc1ccc2nc(NCCN3CCCC3)sc2c1)c1cccs1` [Example 13, N-[2-(2-pyrrolidin-1-ylethylamino)-benzothiazol-6-yl]-2-thiophenecarboximidamide], for which the results for the IC50 in assay [4], in assay [1] and in assay [2] were 11.9 µM, 125 µM and 100 µM, respectively.

For the molecule `NC(=S)Nc1ccc2sc(N)nc2c1` [Example 18, (2-Amino-benzothiazol-5-yl)-thiourea], the IC50 in assay [4] came out at 57.8 µM; in assay [1], 123 µM; in assay [2], 145 µM.

In the case of `Nc1nc2cc(NC(=S)NC(=O)c3ccccc3)ccc2s1` [Example 17, 1-(2-Amino-benzothiazol-5-yl)-3-benzoyl-thiourea], the IC50 in assay [4] is 32.1 µM; in assay [1], 275 µM; in assay [2] it was 94 µM.

On to `CSC(=N)Nc1ccc2nc(N)sc2c1` [Example 4, N-(2-Amino-benzothiazol-6-yl)-2-methylthiocarboximidamide], for which the IC50 in assay [4] was found to be 4.2 µM; in assay [1] it was 327 µM; in assay [2], 83.3 µM.

For `N=C(Nc1ccc2nc(NCCc3ccc(Br)cc3)sc2c1)c1cccs1` [Example 36b, N-{2-[2-(4-Bromo-phenyl)-ethylamino]-benzothiazol-6-yl}-thiophene-2-carboxamidine], the IC50 in assay [4] was determined as 1.46 µM; in assay [1], 91 µM; in assay [2], 110 µM.

In the case of `N=C(Nc1ccc2nc(NCCc3cnc[nH]3)sc2c1)c1cccs1` [Example 36(e), N-{2-[2-(3H-Imidazol-4-yl)-ethylamino]-benzothiazol-6-yl}-thiophene-2-carboxamidine], the “neuroprotection during NMDA challenge” value in assay [3] is recorded as “neuroprotection observed”.

As to `N=C(Nc1ccc2nc(N)sc2c1)c1cccs1` [Example 9, N-(2-Amino-benzothiazol-6-yl)-2-thiophenecarboximidamide], the IC50 in assay [2] was found to be 119 µM.

Regarding `N=C(Nc1ccc2nc(NC3CCN(Cc4ccccc4)CC3)sc2c1)c1cccs1` [Example 36d, N-[2-(1-Benzyl-piperidin-4-ylamino)-benzothiazol-6-yl]-thiophene-2-carboxamidine], the figures for the IC50 in assay [4], in assay [1] and in assay [2] were 1.6 µM, 163 µM and 210 µM, respectively.

(Values after patent publication US7141595B2, “Amino benzothiazole compounds with NOS inhibitory activity” (Neuraxon Inc., priority 2002, dated 2006).)
